Assay results reported in patent US8287845B2, “Hair-binding peptides” (E I du Pont de Nemours and Company, priority 2008, dated 2012).

Conditions: biotinylated peptide in TBST with 1 mg/mL BSA, 1 hour at room temperature, streptavidin-HRP/TMB, A450; MB50 calculated from Scatchard plots
Experimental: The MB50 provides an indication of the strength of the binding interaction or affinity of the components of the complex.
Then, the streptavidin-horseradish peroxidase (HRP) conjugate (Pierce Chemical Co., Rockford, Ill.) was added to each well (1.0 μg per well), and incubated for 1 h at room temperature, followed by 6 times of washes with TBST. […] The results were plotted as A450 versus the concentration of peptide using GraphPad Prism 4.0 (GraphPad Software, Inc., San Diego, Calif.).

Substance | MB50
RRSMSLRMLTRGIKWSAMAYLASRWIL-K(biotin)-NH2 [CXH-W3] | 72 nM
SLRRRWTTFGKILRRWTLPTAMLLVMM-K(biotin)-NH2 [CXH-W4] | 21 nM
